Consider 3 compounds from the NIST ThermoML archive (doi:10.1016/j.jct.2015.08.022).

For series [1] the following is noted: Crystal; DTA.
Series [2] can be described thus: Molar enthalpy of transition or fusion. Particulars: Crystal; DSC.

Each structure is given as a SMILES string. ± gives the expanded uncertainty stated by the source.

In the case of `Nc1ccc(C(=O)O)cc1` [4-aminobenzoic acid], the Normal melting temperature in series [1] was 185.6 ± 0.4 °C. Besides, the “Molar enthalpy of transition or fusion” value in series [2] was determined as 5.98 ± 0.167 kcal/mol.

For the compound `NNC(=O)c1ccncc1` [isonicotinic acid hydrazide], the Normal melting temperature in series [1] is 170.4 ± 0.4 °C. Besides, the “Molar enthalpy of transition or fusion” value in series [2] is 7.43 ± 0.191 kcal/mol.

As to `NC(=O)c1cnccn1` [pyrazinecarboxamide], the Normal melting temperature in series [1] was 189.4 ± 0.4 °C. Further, the “Molar enthalpy of transition or fusion” value in series [2] amounted to 6.48 ± 0.167 kcal/mol.
